According to publication PMC12470129, “New Derivatives of 2-(Cyclohexylamino)thiazol-4(5H)-one as Strong Inhibitors of 11β-Hydroxysteroid Dehydrogenase Type 1: Synthesis, Antiproliferative and Redox-Modulating Activity” (International Journal of Molecular Sciences, 2025):
“Also recorded” adds a separate entry of the source.

Legend:
[1] = molecular target: T1, 11β-HSD2 (Homo sapiens, UniProt P80365); experiment: 11β-HSD2 inhibition assay (cortisol to cortisone, human kidney microsomes, cortisol ELISA); format: biochemical; settings: at a concentration of 10 µM
T1 construct: human kidney microsomes were used as a source of the 11β‐HSD2 enzyme; tissue XenoTech Lot No. 1710160; host or cells: human kidney microsomes, mixed gender
T1 sequence (P80365 1-405): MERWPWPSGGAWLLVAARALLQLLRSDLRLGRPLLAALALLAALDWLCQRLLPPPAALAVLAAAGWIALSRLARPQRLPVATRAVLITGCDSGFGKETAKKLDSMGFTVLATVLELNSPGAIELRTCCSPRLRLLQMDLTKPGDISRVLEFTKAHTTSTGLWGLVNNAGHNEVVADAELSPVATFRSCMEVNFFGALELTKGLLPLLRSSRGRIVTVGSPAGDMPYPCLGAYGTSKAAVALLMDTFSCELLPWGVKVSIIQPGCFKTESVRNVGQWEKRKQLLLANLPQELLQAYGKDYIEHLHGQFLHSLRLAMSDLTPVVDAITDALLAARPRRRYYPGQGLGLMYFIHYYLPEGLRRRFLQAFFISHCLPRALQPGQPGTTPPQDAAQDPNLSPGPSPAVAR
Procedure: 11β-Hydroxysteroid dehydrogenase type 1 and type 2 inhibition assays were performed as previously described. For more details, see the Supplementary Materials. […]
(§1) Solvents and reagents: 18‐beta‐glycyrrhetinic acid – (Acros Organic, Geel, Belgium), cortisone, NAD cofactor, phosphate buffer powder (Sigma‐Aldrich, Poznań, Poland), Human Kidney Microsomes, […]
(§2) ‐ (DiaMetra, Spello, Italy), Enzyme‐Linked Immunosorbent Assay (ELISA) Kit for 11‐Beta‐ Hydroxysteroid Dehydrogenase Type 2 Lot No. L191113457 ‐ (Cloud‐Clone Corp., Wuhan, China), PBS Lot No. H161008 (Pan Biotech, Aidenbach, Germany). […]
(§3) kidney microsomes were used as a source of the 11β‐HSD2 enzyme. Standard 96‐well microplates were filled with a reagent mixture: cortisol/NAD+ (20 μL, to obtain a final concentration of 200 nM / 2 μM), […]
(§4) The resulting solution (final volume of 100 μL) was incubated for 2.5 h at 37°C. […]
(§5) levels were measured using a commercially available ELISA kit.
(§6) 1.3. Determination of IC50 […]
(§7) conditions described in the sections above. Analogous assays without added inhibitors were performed as controls. The IC₅₀ value, defined as the concentration of inhibitor causing a 50% reduction in cortisol or cortisone, was read directly from the graph.

[2] = system: Caco-2 cells; experiment: Intracellular redox homeostasis (ROS, RNS, GSH), Caco-2; format: cell-based, human; settings: Caco-2, 500 µM, 72 h
Procedure: (§8) Human fibroblast (BJ; Cat# CRL-2522), human pancreatic cancer (PANC-1; Cat# CRL-1469), human breast cancer (MDA-MB-231; Cat# HTB-26); human brain glioma cells (U-118 MG; Cat# HTB-15), human melanoma (SK-MEL-30; Cat# ACC 151) and human colon carcinoma (Caco-2; Cat# HTB-37) were purchased from ATCC (Manassas, VA, USA) or DSMZ (Braunschweig, Germany). The cell lines were routinely maintained in the medium recommended by the manufacturer—MEM, DMEM, or RPMI (Corning, New York, NY, USA) with L-glutamine, 4.5 g/L glucose, and sodium pyruvate and supplemented with 10% FBS for BJ, PANC-1, MDA-MB-231, U-118 MG, and SK-MEL-30 or 20% FBS for Caco-2. All cell lines were cultured in a humidified CO2 incubator at 37 °C. For assays, cells were seeded at a constant density of 5 × 10^3 cells/0.32 cm^2 for Caco-2, PANC-1, MDA-MB-231, U-118 MG, and SK-MEL-30 or 2 × 10^3 cells/0.32 cm^2 for BJ.
(§9) Based on the MTS assay, a toxic concentration of 500 µM of each compound was selected for redox analysis for all cell lines. Cell lines were seeded at the standard density in 96-well black plates. […] The signal measurement was taken with a Synergy H1 microplate reader (BioTek Instruments, CA, USA).

[3] = system: U-118 MG cells; experiment: MTS assay, U-118 MG; format: cell-based, human; settings: 72 h
Procedure: as §8
(§10) MTS assay was performed as described elsewhere. Cell lines were seeded in a 96-well plate 24 h prior to treatment. Compounds 3a–3i were tested in a 10–500 µM concentration range and treated for 72 h. Next, the MTS solution was added for 3h and incubated at 37 °C. Absorbance was measured at 590 nm and 620 nm wavelengths using a Synergy H1 microplate reader (BioTek Instruments, San Diego, CA, USA).

[4] = molecular target: T2, 11β-HSD1 (Homo sapiens, UniProt P28845); experiment: 11β-HSD1 inhibition assay (cortisone to cortisol, human liver microsomes, cortisol ELISA); format: biochemical; settings: for inhibition at 10 µM: at a concentration of 10 µM; for inhibition at 10 µM / IC50: human liver microsomes; for selectivity 11β-HSD1 versus 11β-HSD2: compared on % inhibition at 10 µM, versus carbenoxolone; for IC50: unit printed in text (b17-b19)
T2 construct: human liver microsomes were used as a source of the 11β‐HSD1 enzyme; tissue XenoTech Lot No.1410013; host or cells: pooled human liver microsomes, mixed gender
Procedure: 11β-Hydroxysteroid dehydrogenase type 1 and type 2 inhibition assays were performed as previously described. For more details, see the Supplementary Materials.
Detailed protocols of enzyme inhibition assays
1. Inhibition of 11β‐HSD Assays […]
tetrasodium salt, phosphate buffer powder, (Sigma‐Aldrich, Poznań, Poland), Pooled human liver microsomes, mixed gender, 1 mL, 20 mg/mL Lot No.1410013 ‐ XenoTech, Cortisol Elisa Ref DkO001 Lot […]
No. L211008799 – (Cloud‐Clone Corp., Wuhan, China), PBS Lot No. H161008 (Pan Biotech, Aidenbach, […]
liver microsomes were used as a source of the 11β‐HSD1 enzyme. Standard 96‐well microplates were filled with a reagent mixture: cortisone/NADPH (20 μ l, to obtain a final concentration of 200 nM / 2 μ M), […]
water. The resulting solution (final volume 100 μ l) was incubated for 2.5 h at 37°C. To stop the reaction, 10 μl of a 100 μM solution of 18β‐glycyrrhetinic acid in PBS was added. Cortisol levels resulting from the reaction were measured using a commercially available ELISA kit.
as §1, §2, §3, §4, §5, §6, §7

[5] = system: Caco-2 cells; experiment: MTS assay, Caco-2; format: cell-based, human; settings: for cell metabolic activity down-regulated to (MTS): Caco-2, 72 h, strongest effects
Procedure: as §8, §10

[6] = system: MDA-MB-231 cells; experiment: MTS assay, MDA-MB-231; format: cell-based, human; settings: for cell metabolic activity down-regulated to (MTS): MDA-MB-231, 72 h, strongest effects
Procedure: as §8, §10

[7] = system: SK-MEL-30 cells; experiment: Intracellular redox homeostasis (ROS, RNS, GSH), SK-MEL-30; format: cell-based, human; settings: SK-MEL-30, 500 µM, 72 h
Procedure: as §8, §9

[8] = system: SK-MEL-30 cells; experiment: MTS assay, SK-MEL-30; format: cell-based, human; settings: for cell metabolic activity down-regulated to (MTS): SK-MEL-30, 72 h, strongest effects
Procedure: as §8, §10

[9] = system: PANC-1 cells; experiment: MTS assay, PANC-1; format: cell-based, human; settings: PANC-1, 72 h
Procedure: as §8, §10

[10] = system: BJ cells; experiment: Intracellular redox homeostasis (ROS, RNS, GSH), BJ; format: cell-based, human; settings: 500 µM, 72 h
Procedure: as §8, §9

T2 sequence (P28845 whole entry): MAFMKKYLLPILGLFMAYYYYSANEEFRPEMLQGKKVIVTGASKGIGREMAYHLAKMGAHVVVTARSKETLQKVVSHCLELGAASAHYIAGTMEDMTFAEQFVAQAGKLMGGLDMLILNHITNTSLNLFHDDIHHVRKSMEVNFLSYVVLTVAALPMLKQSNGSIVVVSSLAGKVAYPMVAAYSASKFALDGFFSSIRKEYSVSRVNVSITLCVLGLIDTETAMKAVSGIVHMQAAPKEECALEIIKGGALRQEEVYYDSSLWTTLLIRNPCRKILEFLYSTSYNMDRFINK

| Structure (SMILES) | inhibition at 10 µM [1] [%] | ROS level [2] | highest increase in proliferation (metabolic activity, MTS) [3] | inhibition at 10 µM [4] [%] | selectivity 11β-HSD1 versus 11β-HSD2 [4] | IC50 [4] [nM] | concentration at which a decrease in cell viability is observed ([5]; Caco-2, MTS, 72 h) | cell metabolic activity down-regulated to (MTS) [5] | cell metabolic activity down-regulated to (MTS) [6] | ROS level [7] | cell metabolic activity down-regulated to (MTS) [8] | highest increase in proliferation (metabolic activity, MTS) [9] | change of cell viability / metabolic activity ([8]; SK-MEL-30, MTS, 72 h, 10–500 µM) | change of cell viability / metabolic activity ([5]; Caco-2, MTS, 72 h, 10–500 µM) | concentration at which a decrease in cell viability / metabolic activity is observed ([6]; MDA-MB-231, MTS, 72 h) [µM] | change of cell viability / metabolic activity ([6]; MDA-MB-231, MTS, 72 h, 10–500 µM) | ROS level [10] |
| --- | --- | --- | --- | --- | --- | --- | --- | --- | --- | --- | --- | --- | --- | --- | --- | --- | --- |
| CC1SC(NC2CCCCC2)=NC1=O (stereo not drawn) [Compound 3a, 2-(Cyclohexylamino)-5-methylthiazol-4(5H)-one] | 42 ± 2.5 | increase in ROS production | 115–134% | 27.5 ± 2.12 | greater inhibitory activity towards 11β-HSD2 than 11β-HSD1 | > 10000 | above 200 µM | – | – | – | – | – | – | – | – | – | – |
| CCC1SC(NC2CCCCC2)=NC1=O (stereo not drawn) [Compound 3b, 2-(Cyclohexylamino)-5-ethylthiazol-4(5H)-one] | 38.3 ± 9.96 | increase in ROS production | – | 68.5 ± 4.28 | – | 570 ± 60 | above 200 µM | 30–54% | 30–54% | increase in ROS production | – | – | – | – | – | – | – |
| CCCC1SC(NC2CCCCC2)=NC1=O (stereo not drawn) [Compound 3c, 2-(Cyclohexylamino)-5-propylthiazol-4(5H)-one] | 47.1 ± 0.82 | – | – | 85.7 ± 4.43 | – | 400 ± 5 | – | – | 30–54% | – | 30–54% | – | – | – | – | – | – |
| CC(C)C1SC(NC2CCCCC2)=NC1=O (stereo not drawn) [Compound 3d, 2-(Cyclohexylamino)-5-isopropylthiazol-4(5H)-one] | 47 ± 1.67 | – | – | 90.4 ± 2.74 | greater selectivity than the standard compound | 80 ± 15 | above 200 µM | – | – | – | 30–54% | – | – | – | – | – | – |
| CC1(C)SC(NC2CCCCC2)=NC1=O [Compound 3e, 2-(Cyclohexylamino)-5,5-dimethylthiazol-4(5H)-one] | 38.6 ± 5.56 | – | – | 82.6 ± 1.79 | – | 300 ± 50 | above 200 µM | 30–54% | – | – | – | 115–134% | – | – | – | – | – |
| O=C1N=C(NC2CCCCC2)SC1c1ccccc1 (stereo not drawn) [Compound 3f, 2-(Cyclohexylamino)-5-phenylthiazol-4(5H)-one] | 40 ± 8.34 | – | – | 83.8 ± 4.53 | – | 170 ± 35 | – | – | – | – | 30–54% | 115–134% | – | – | – | – | – |
| O=C1N=C(NC2CCCCC2)SC1c1ccc(Br)cc1 (stereo not drawn) [Compound 3g, 5-(4-Bromophenyl)-2-(cyclohexylamino)thiazol-4(5H)-one] | 47.2 ± 1.17 | – | 115–134% | 90.2 ± 1.59 | greater selectivity than the standard compound | 70 ± 8 | 1 µM | 30–54% | 30–54% | – | 30–54% | – | vigorous inhibitory activity | vigorous inhibitory activity | 75 | vigorous inhibitory activity | – |
| O=C1N=C(NC2CCCCC2)SC12CCCCC2 [Compound 3h, 2-(Cyclohexylamino)-1-thia-3-azaspiro [4.5]dec-2-en-4-one] | 45.6 ± 5.28 | – | – | 94 ± 2.35 | greater selectivity than the standard compound; also recorded: better activity and selectivity than carbenoxolone | 40 ± 4 | – | 30–54% | 30–54% | – | – | 115–134% | – | – | – | – | increase in ROS |
| O=C1N=C(NC2CCCCC2)SC12CCC2 [Compound 3i, 6-(Cyclohexylamino)-5-thia-7-azaspiro [3.4]oct-6-en-8-one] | 51 ± 0.73 | – | 115–134% | 87.3 ± 0.99 | – | 90 ± 16 | above 200 µM | 30–54% | 30–54% | – | – | – | – | – | – | – | increase in ROS |
